The text below walks through data of patent US10328049B2, “Infant nutritional product with RRR alpha-tocopherol” (ABBOTT LABORATORIES, priority 2013, dated 2019).

The conditions of series [1]: cited from earlier work; for Activity as alpha-TE: alpha-tocopherol equivalents (TE), table from Vitamin E in Health and Disease, 1993, p. 21.
Series [2] can be described thus: Brain analysis of infant brain (tocopherol content and correlations). The series is classed as in vivo, human. The following applies: formula fed infant brain. From the text: Cholesterol is a major component of myelin, and thus, is a marker for extent of CNS myelination. Glutamate is a neurotransmitter, which is reported to stimulate neuron outgrowth and branching. […] Accordingly, an excessively high level of dietary gamma-tocopherol may hinder the brain uptake of RRR alpha-tocopherol, and thus, may hinder CNS development.
Most commercial infant formulas are fortified with synthetic alpha-tocopherols. It has been reported that the plasma […] of the 2R isomers are about equal for animals fed a diet containing synthetic alpha-tocopherols. These findings indicate that RRR alpha-tocopherol is preferably absorbed into the brain or it is metabolized at a much slower rate than RSR, RRS and RSS tocopherols.

For `CC(=O)Oc1c(C)c(C)c2c(c1C)CCC(C)(CCC[C@H](C)CCC[C@H](C)CCCC(C)C)O2` (mixture of isomers) [Synthetic alpha-tocopherol acetate, alpha-tocopherol acetate], in series [1], the “Activity as alpha-TE” value is reported as 0.74 mg/mg compound.

For the molecule `Cc1c(C)c2c(c(C)c1O)CC[C@@](C)(CCC[C@H](C)CCC[C@H](C)CCCC(C)C)O2` [RRR alpha-tocopherol], the “share of the alpha-tocopherol in brain that is RRR alpha-tocopherol” value in series [2] was “over 60%”. Moreover, the “Activity as alpha-TE” value in series [1] is listed as 1.0 mg/mg compound. Moreover, in series [1] (assigned reference activity), the “assigned vitamin E activity” value is 1 mg alpha-tocopherol equivalent (TE) per milligram.

In the case of `CC(C)=CCC/C(C)=C/CC/C(C)=C/CC[C@]1(C)CCc2c(C)c(O)c(C)c(C)c2O1` [RRR alpha-tocotrienol], the “Activity as alpha-TE” value in series [1] is 0.3 mg/mg compound.

Turning to `Cc1cc(O)c(C)c2c1O[C@](C)(CCC[C@H](C)CCC[C@H](C)CCCC(C)C)CC2` [RRR beta-tocopherol], the “Activity as alpha-TE” value in series [1] is 0.5 mg/mg compound. On to `CC(C)=CCC/C(C)=C/CC/C(C)=C/CC[C@]1(C)CCc2c(C)c(O)cc(C)c2O1` [RRR beta-tocotrienol], for which the “Activity as alpha-TE” value in series [1] is given as 0.05 mg/mg compound.

`Cc1cc(O)cc2c1O[C@](C)(CCC[C@H](C)CCC[C@H](C)CCCC(C)C)CC2` [RRR delta-tocopherol]: the “Activity as alpha-TE” value in series [1] is reported as 0.03 mg/mg compound. Take `Cc1c(O)cc2c(c1C)O[C@](C)(CCC[C@H](C)CCC[C@H](C)CCCC(C)C)CC2` [RRR gamma-tocopherol]: the “Activity as alpha-TE” value in series [1] was 0.1 mg/mg compound.
